Measured values published in PubChem BioAssay (NCI).
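Grown in 96-well plates, cells were treated for 48 hours with each compound at five concentrations. Insufficient inhibition: endpoint recorded as highest concentration tested. TGI denotes the concentration required for complete inhibition of growth.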

Tests used:
Assay in all cases: NCI tumour cell line growth inhibition, 48 h
786-0 renal = tested on: 786-0 renal
A498 renal = tested on: A498 renal
A549 NSCLC = tested on: A549 NSCLC
ACHN renal = tested on: ACHN renal
CAKI-1 renal = tested on: CAKI-1 renal
CCRF-CEM leukemia = tested on: CCRF-CEM leukemia
COLO 205 colon = tested on: COLO 205 colon
DLD-1 colon = tested on: DLD-1 colon
DMS 114 small cell lung = tested on: DMS 114 small cell lung
DMS 273 small cell lung = tested on: DMS 273 small cell lung
EKVX NSCLC = tested on: EKVX NSCLC
HCC-2998 colon = tested on: HCC-2998 colon
HCT-116 colon = tested on: HCT-116 colon
HCT-15 colon = tested on: HCT-15 colon
HL-60(TB) leukemia = tested on: HL-60(TB) leukemia
HOP-62 NSCLC = tested on: HOP-62 NSCLC
HOP-92 NSCLC = tested on: HOP-92 NSCLC
HT29 colon = tested on: HT29 colon
IGROV1 ovarian = tested on: IGROV1 ovarian
K-562 leukemia = tested on: K-562 leukemia
KM12 colon = tested on: KM12 colon
KM20L2 colon = tested on: KM20L2 colon
LOX IMVI melanoma = tested on: LOX IMVI melanoma
LXFL 529 NSCLC = tested on: LXFL 529 NSCLC
M14 melanoma = tested on: M14 melanoma
M19-MEL melanoma = tested on: M19-MEL melanoma
MALME-3M melanoma = tested on: MALME-3M melanoma
MOLT-4 leukemia = tested on: MOLT-4 leukemia
NCI-H226 lung = tested on: NCI-H226 lung
NCI-H23 lung = tested on: NCI-H23 lung
NCI-H460 lung = tested on: NCI-H460 lung
NCI-H522 lung = tested on: NCI-H522 lung
OVCAR-3 ovarian = tested on: OVCAR-3 ovarian
OVCAR-4 ovarian = tested on: OVCAR-4 ovarian
OVCAR-5 ovarian = tested on: OVCAR-5 ovarian
OVCAR-8 ovarian = tested on: OVCAR-8 ovarian
RPMI-8226 leukemia = tested on: RPMI-8226 leukemia
RXF 393 renal = tested on: RXF 393 renal
SF-268 CNS = tested on: SF-268 CNS
SF-295 CNS = tested on: SF-295 CNS
SF-539 CNS = tested on: SF-539 CNS
SK-MEL-28 melanoma = tested on: SK-MEL-28 melanoma
SK-MEL-5 melanoma = tested on: SK-MEL-5 melanoma
SK-OV-3 ovarian = tested on: SK-OV-3 ovarian
SN12C renal = tested on: SN12C renal
SNB-19 CNS = tested on: SNB-19 CNS
SNB-75 CNS = tested on: SNB-75 CNS
SNB-78 CNS = tested on: SNB-78 CNS
SR leukemia = tested on: SR leukemia
SW-620 colon = tested on: SW-620 colon
TK-10 renal = tested on: TK-10 renal
U251 CNS = tested on: U251 CNS
UACC-257 melanoma = tested on: UACC-257 melanoma
UACC-62 melanoma = tested on: UACC-62 melanoma
UO-31 renal = tested on: UO-31 renal
XF 498 CNS = tested on: XF 498 CNS
HOP-18 NSCLC = tested on: HOP-18 NSCLC
SK-MEL-2 melanoma = tested on: SK-MEL-2 melanoma

Measured: TGI

O=C1C(N2C(=O)c3ccccc3C2=O)CN1C(COCc1ccccc1)c1ccc(OCc2ccccc2)cc1 (centres undefined)
not listed: HOP-18 NSCLC | SK-MEL-2 melanoma
> 100 µM: all other assays above

CC1CCC23COC(=O)C2C(O)CCC3C1(C)CC(O)c1ccoc1 (centres undefined)
not listed: CAKI-1 renal | DMS 273 small cell lung | HL-60(TB) leukemia | RPMI-8226 leukemia | SR leukemia
> 100 µM: all other assays above
